The source of these data is PMC8746696 (Molecules, 2021).

What is called CC50 is the concentration that lowers cell viability or growth by half. For orientation: IC50 means the concentration needed to halve the response being measured.

The nature of data set [1]: Intrinsic cytotoxicity, EZ4U assay, HEK293A. The following applies: human, HEK293A cells.
Description: (§1) Next, we examined the intrinsic cytotoxicity of the compounds on HeLa cervical cancer cells and human embryonic kidney derived cells HEK293A.
(§2) Cytotoxicity of the compounds to HeLa (human cervical cancer) and HEK293A (human embryonic kidney) cell lines was examined using the EZ4U Cell Proliferation and Cytotoxicity Assay (Biomedica, Vienna, Austria), according to the manufacturer’s protocols. The cells were grown in Iscove’s modified Dulbecco’s medium (IMDM) with 40 μg/mL gentamicin, 50 IU/mL penicillin, 50 μg/mL streptomycin (MP Biomedicals, Waltham, MA, USA), and 10% of fetal bovine serum (Biolot, Saint Petersburg, Russia) in a 5% CO2 atmosphere. After the formation of a 30–50%monolayer, the tested compounds were added to the medium. […] The volume of the added reagents was 1/100 of the total volume of the culture medium, and the amount of DMSO was 1% of the final volume. Control cells were grown in the presence of 1% DMSO. The cell culture was monitored for three days.
Data set [2] has as its target TDP1 (Homo sapiens, UniProt Q9NUW8). Description: Real-time fluorescence detection of TDP1 activity (FAM/BHQ1 oligonucleotide biosensor). It is filed as biochemical. The following applies: concentration that inhibits the activity of the enzyme by 50%; read-out: TDP1 IC50. An excerpt: For real-time detection of TDP1 activity, we used the oligonucleotide biosensor based on the ability of TDP1 to remove fluorophore quenchers from the 3′-end of DNA [29]. The hexadecameric oligonucleotide carried 5(6)-carboxyfluorescein (FAM) at the 5′-end and fluorophore quencher BHQ1 (Black Hole Quencher-1) at the 3′-end. TDP1 inhibitors prevent the removal of fluorophore quenchers, thus reducing fluorescence intensity.
TDP1 activity was detected, as described by intensity measurement in a reaction of quencher removal from a fluorophore quencher–coupled DNA oligonucleotide catalyzed by TDP1. The reaction was carried out at different concentrations of inhibitors (the control samples contained 1% of DMSO). The reaction mixtures contained TDP1 buffer (50 mM Tris-HCl pH 8.0, 50 mM NaCl, and 7 mM β-mercaptoethanol), 50 nM biosensor, and an inhibitor being tested. Purified TDP1 (1.5 nM) triggered the reaction. The biosensor (5′-[FAM] AAC GTC AGGGTC TTC C [BHQ]-3′) was synthesized in the Laboratory of Nucleic Acid Chemistry at the Institute of Chemical Biology and Fundamental Medicine (Novosibirsk, Russia).
The reactions were incubated on a POLARstar OPTIMA fluorimeter (BMG LABTECH, GmbH, Ortenberg, Germany) to measure fluorescence every 60 s (ex. 485/em. 520 nm) during the linear phase (here, data from minute 0 to minute 8). The values of IC50 were determined using a six-point concentration response curve in a minimum of three independent experiments and were calculated using MARS Data Analysis 2.0 (BMG LABTECH, Ortenberg, Germany).

Data set [3] has as its system HeLa cells. Description: Influence on topotecan cytotoxicity (sensitization, combination index). It is filed as cell-based, human. The method, then: The inhibitors were studied, using their non-toxic concentration, to determine the cytotoxicity of topotecan, which is widely used in the treatment of cancer.
The concentration of these two compounds was increased to 10 μM and a more distinct effect was observed (Figure 3B). The combination index (CI) for different concentrations of topotecan and 5 at 10 μM was in the range 0.26–0.44, and for 8 at 10 μM, it was 0.18–0.30 (Supplementary Materials, Tables S1 and S2). CI value <1 indicates a synergistic effect of topotecan and compounds 5 and 8 [34].
The cell culture was monitored for three days.

For data set [4], the system named is HeLa cells. The data set is described as above. The format is cell-based, human. The following applies: compound 5 μM.
The target in data set [5] is T1, recombinant human TDP2 (Homo sapiens, UniProt O95551).
T1 sequence (O95551 1-362): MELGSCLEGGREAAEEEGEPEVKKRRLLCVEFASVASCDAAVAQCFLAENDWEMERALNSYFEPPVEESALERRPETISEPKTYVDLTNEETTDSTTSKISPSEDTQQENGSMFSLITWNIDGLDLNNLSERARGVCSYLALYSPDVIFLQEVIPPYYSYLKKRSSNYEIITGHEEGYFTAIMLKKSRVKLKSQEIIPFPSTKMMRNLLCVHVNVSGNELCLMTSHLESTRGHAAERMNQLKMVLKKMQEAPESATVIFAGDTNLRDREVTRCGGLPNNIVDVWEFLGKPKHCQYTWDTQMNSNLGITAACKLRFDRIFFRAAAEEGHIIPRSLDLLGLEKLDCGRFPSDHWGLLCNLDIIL
Description: Gel-based TDP2 activity assay (removal of 5'-tyrosine from oligonucleotide, PAGE). The format is biochemical. The arrangement: key to Tdp2 activity, c 200 µM / Tdp2 (inhibitor concentration 1 mM): TDP2 active (+); -: inactive (−). How it is done:
We investigated the activity against the TDP2 enzyme for compounds 4–10, 12–15, and 17–19 (Table 1). TDP2 was tested for its ability to eliminate tyrosine residue from the 5’-end of the oligonucleotide substrate. The TDP2 reaction products were separated under denaturing conditions in polyacrylamide gel (PAGE). […] Note that as different assays formats were used for TDP1 and TDP2 inhibition, the value of these assays cannot be directly compared. A paper on derivatives of usnic acid as effective TDP1 inhibitors and mild inhibitors of TDP2 was recently published. […] More inhibitors of this enzyme have also been reported in the literature. Obviously, further work for increasing activity against TDP2 is needed.
The oligonucleotide with tyrosine residue on the 5′-end (5′-tyrosine-AAC GTC AGG GTC TTC C-FAM-3′) was used for the TDP2 enzyme activity assay. The TDP2 reaction products were separated under denaturing conditions in polyacrylamide gel (PAGE). The reaction was performed in a final volume of 20 μL using 100 nM substrate incubated with 200 nM recombinant human TDP2 in the absence or presence of the inhibitor for 10 min at 37 °C in a buffer containing 50 mM Tris-HCl, pH 8.0, 50 mM NaCl, 7 mM β-mercaptoethanol. Reactions were terminated by the addition of gel loading buffer contained 10% formamide, 7 M carbamide, 0.1% xylene cyanol, and 0,1% bromophenol blue. The samples were heated at 90 °C for 7 min before loading on the gel. The reaction products were separated by electrophoresis in a 20% denaturing PAGE with 7 M carbamide. A Typhoon FLA 9500 phosphorimager (GE Healthcare) was used for gel scanning and imaging. Each experiment was carried out in three independent replicates. The data were analyzed with QuantityOne 4.6.7 software.

Data set [6] can be described thus: Intrinsic cytotoxicity, EZ4U assay, HeLa. Particulars: human, HeLa cells.
Description: as §1, §2
In data set [7] the test system is HeLa cells. The experiment in a line: Intrinsic cytotoxicity, EZ4U assay, HeLa.
Description: as §1, §2

Each structure is given as a SMILES string.

Chain of TDP1 (Q9NUW8 whole entry): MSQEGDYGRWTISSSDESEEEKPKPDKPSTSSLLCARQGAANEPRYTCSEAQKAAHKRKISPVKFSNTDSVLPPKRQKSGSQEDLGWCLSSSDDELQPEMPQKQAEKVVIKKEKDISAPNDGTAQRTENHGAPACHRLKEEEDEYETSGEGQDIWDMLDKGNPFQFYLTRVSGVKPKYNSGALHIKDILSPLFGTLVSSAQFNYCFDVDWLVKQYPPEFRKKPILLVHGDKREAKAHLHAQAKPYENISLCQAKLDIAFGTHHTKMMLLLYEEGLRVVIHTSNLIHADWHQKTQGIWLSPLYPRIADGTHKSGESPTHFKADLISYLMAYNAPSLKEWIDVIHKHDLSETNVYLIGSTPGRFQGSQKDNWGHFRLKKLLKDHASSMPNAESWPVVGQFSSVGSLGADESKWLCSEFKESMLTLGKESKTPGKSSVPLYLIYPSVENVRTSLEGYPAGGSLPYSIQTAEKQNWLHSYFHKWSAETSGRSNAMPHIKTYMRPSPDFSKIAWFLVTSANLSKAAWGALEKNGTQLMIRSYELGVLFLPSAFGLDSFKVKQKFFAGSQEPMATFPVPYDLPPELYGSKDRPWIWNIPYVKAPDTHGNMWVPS

`C[C@H](CCC(=O)Nc1ccc(Br)cc1)[C@H]1CC[C@H]2[C@@H]3CC[C@@H]4C[C@H](OCc5ccccc5)CC[C@]4(C)[C@H]3C[C@H](O)[C@]12C` [Compound 8, N-(4′-Bromophenyl)-3α-benzyloxy-12α-hydroxy-5β-cholane-24-amide]: the CC50 at 72 h in data set [1] and in data set [6] was above 100 µM throughout. Moreover, in data set [2], the IC50 amounted to 0.57 ± 0.3 µM. The CI in data set [3] (Dose Tpc 0.5 + compound 10 μM) came to 0.2446; in data set [3] (Dose Tpc 1.0 + compound 10 μM), 0.2817; in data set [3] (Dose Tpc 2.0 + compound 10 μM) it was 0.1757; in data set [3] (Dose Tpc 4.0 + compound 10 μM) it was 0.3046. Also, the Effect in data set [3] (Dose Tpc 0.5 + compound 10 μM) was 0.67; in data set [3] (Dose Tpc 1.0 + compound 10 μM), 0.78; in data set [3] (Dose Tpc 2.0 + compound 10 μM) it was 0.92; in data set [3] (Dose Tpc 4.0 + compound 10 μM), 0.93. For the same compound, the “sensitizing effect on topotecan cytotoxicity” value in data set [4] is given as “greatest sensitizing effect”. In addition, in data set [5] (c 200 µM (Table S3 head)), the “Tdp2 activity, c 200 µM” value is reported as “+”. In addition, the “Tdp2 (inhibitor concentration 1 mM)” value in data set [5] (inhibitor 1 mM) is “+”. The remaining activity at 1000 µM in data set [5] (inhibitor 1 mM, residual enzyme activity, read-out: TDP2 (Inhibitor Concentration 1 mM), residual activity of TDP2) came out at 47 ± 3%. Also, the HeLa cell death in data set [7] (at 20 μM) is listed as 40%; in data set [7] (at 100 μM) it was “maintaining this level of toxicity”.
